We go through one molecule from article PMC8040520 (ACS chemical biology, 2020).

The assay deals with BolI. The assay is described as follows: steady-state kinetics, CoA production. The format is biochemical, Bradyrhizobium oligotrophicum. Conditions: co-substrate SAM presumed; details in supplement.

With `CC(C)(COP(=O)(O)OP(=O)(O)OC[C@H]1O[C@@H](n2cnc3c(N)ncnc32)[C@H](O)[C@@H]1OP(=O)(O)O)[C@@H](O)C(=O)NCCC(=O)NCCSC(=O)/C=C/c1ccccc1` [cinnamoyl-CoA], the Km turned out to be 3 µM.

As usually defined, the Km is the substrate concentration at which the rate is half of its maximum.
